Patent publication US8207178B2 (priority 2007, dated 2012)

What was measured:
HIV-1 K103N-L100I mutant = experiment: microbe, parasite or virus in culture; type: cell-based, human immunodeficiency virus type 1 (HIV-1); conditions: Human immunodeficiency virus 1, HeLa, read-out: EC50 mutant K103N-L100I, mutant K103N-L100I
wild type HIV-1 = experiment: microbe, parasite or virus in culture; type: cell-based, human immunodeficiency virus type 1 (HIV-1); conditions: Human immunodeficiency virus 1, Hela-JC53

COc1ccc(Cn2cnc3nc(Nc4ccc(C#N)cc4)nc(Oc4ccc(-c5ccncc5)cc4Cl)c32)cc1 [Example 101, 4-(6-(2-Chloro-4-(pyridin-4-yl)phenoxy)-7-(4-methoxybenzyl)-7H-purin-2-ylamino)benzonitrile]
EC50 (HIV-1 K103N-L100I mutant): > 10 nM
EC50 (wild type HIV-1): > 10 nM

Cc1cc(-c2ccc(C(N)=O)nc2)cc(C)c1Oc1nc(Nc2ccc(C#N)cc2)nc2ccn(C)c12 [Example 60, 5-(4-(2-(4-Cyanophenylamino)-5-methyl-5H-pyrrolo[3,2-d]pyrimidin-4-yloxy)-3,5-dimethyl-phenyl)picolinamide]
EC50 (HIV-1 K103N-L100I mutant): > 10 nM
EC50 (wild type HIV-1): 1 to 10 nM

Cc1cc(-c2ccc(C(=O)O)cc2)cc(C)c1Oc1nc(Nc2ccc(C#N)cc2)nc2ncn(C)c12 [Example 110, 4′-(2-(4-Cyanophenylamino)-7-methyl-7H-purin-6-yloxy)-3′,5′-dimethylbiphenyl-4-carboxylic acid]
EC50 (HIV-1 K103N-L100I mutant): > 10 nM
EC50 (wild type HIV-1): > 10 nM

Cc1cc(-c2ccncc2)cc(C)c1Oc1nc(Nc2ccc(C#N)cc2)nc2c(Cl)cn(C)c12 [Example 18, 4-(7-Chloro-4-(2,6-dimethyl-4-(pyridin-4-yl)phenoxy)-5-methyl-5H-pyrrolo[3,2-d]pyrimidin-2-ylamino)benzonitrile]
EC50 (HIV-1 K103N-L100I mutant): 1 to 10 nM
EC50 (wild type HIV-1): 1 to 10 nM

COc1ccc(-c2cc(C)c(Oc3nc(Nc4ccc(C#N)cc4)nc4ccn(C)c34)c(C)c2)cn1 [Example 82, 4-(4-(4-(6-methoxypyridin-3-yl)-2,6-dimethylphenoxy)-5-methyl-5H-pyrrolo[3,2-d]pyrimidin-2-ylamino) benzonitrile]
EC50 (wild type HIV-1): > 10 nM

Cc1cc(-c2cnn(Cc3ccccc3)c2)cc(C)c1Oc1nc(Nc2ccc(C#N)cc2)nc2ccn(C)c12 [Example 76, 4-(4-(4-(1-benzyl-1H-pyrazol-4-yl)-2,6-dimethylphenoxy)-5-methyl-5H-pyrrolo[3,2-d]pyrimidin-2-ylamino)benzonitrile]
EC50 (HIV-1 K103N-L100I mutant): > 10 nM
EC50 (wild type HIV-1): 1 to 10 nM

Cc1cc(-c2ccnnc2)cc(C)c1Oc1nc(Nc2ccc(C#N)cc2)nc2ncn(C)c12 [Example 58, 4-(6-(2,6-Dimethyl-4-(pyridazin-4-yl)phenoxy)-7-methyl-7H-purin-2-ylamino)benzonitrile]
EC50 (HIV-1 K103N-L100I mutant): 1 to 10 nM
EC50 (wild type HIV-1): 1 to 10 nM

Cc1cc(-c2ccncc2)cc(C)c1Oc1nc(Nc2ccc(C#N)cc2)nc2c1cnn2C [Example 51, 4-(4-(2,6-Dimethyl-4-(pyridin-4-yl)phenoxy)-1-methyl-1H-pyrazolo[3,4-d]pyrimidin-6-ylamino) benzonitrile]
EC50 (HIV-1 K103N-L100I mutant): > 10 nM
EC50 (wild type HIV-1): 1 to 10 nM

Cc1cc(-c2ccnnc2)cc(C)c1Oc1nc(Nc2ccc(C#N)cc2)nc2ccn(C)c12 [Example 57, 4-(4-(2,6-dimethyl-4-(pyridazin-4-yl)phenoxy)-5-methyl-5H-pyrrolo[3,2-d]pyrimidin-2-ylamino) benzonitrile]
EC50 (HIV-1 K103N-L100I mutant): 1 to 10 nM
EC50 (wild type HIV-1): < 1 nM

Cc1cc(-c2ccnn2C)cc(C)c1Oc1nc(Nc2ccc(C#N)cc2)nc2ccn(C)c12 [Example 25, 4-(4-(2,6-Dimethyl-4-(1-methyl-1H-pyrazol-5-yl)phenoxy)-5-methyl-5H-pyrrolo[3,2-d]pyrimidin-2-ylamino)benzonitrile]
EC50 (HIV-1 K103N-L100I mutant): < 1 nM
EC50 (wild type HIV-1): < 1 nM

COc1ccc(Cn2cnc3nc(Nc4ccc(C#N)cc4)nc(Oc4c(C)cc(-c5ccncc5)cc4Cl)c32)cc1 [Example 99, 4-(6-(2-chloro-6-methyl-4-(pyridin-4-yl)phenoxy)-7-(4-methoxybenzyl)-7H-purin-2-ylamino)benzonitrile]
EC50 (HIV-1 K103N-L100I mutant): > 10 nM
EC50 (wild type HIV-1): 1 to 10 nM

Cc1cc(-c2ccc(C(=O)N3CCC3)cc2)cc(C)c1Oc1nc(Nc2ccc(C#N)cc2)nc2ccn(C)c12 [Example 90]
EC50 (HIV-1 K103N-L100I mutant): > 10 nM
EC50 (wild type HIV-1): 1 to 10 nM

Cc1cc(-c2cc3ccccc3[nH]2)cc(C)c1Oc1nc(Nc2ccc(C#N)cc2)nc2ccn(C)c12 [Example 86, 4-(4-(4-(1H-indol-2-yl)-2,6-dimethylphenoxy)-5-methyl-5H-pyrrolo[3,2-d]pyrimidin-2-ylamino)benzonitrile]
EC50 (HIV-1 K103N-L100I mutant): > 10 nM
EC50 (wild type HIV-1): > 10 nM

Cc1cc(-c2ccc3nonc3c2)cc(C)c1Oc1nc(Nc2ccc(C#N)cc2)nc2ccn(C)c12 [Example 26, 4-(4-(4-(Benzo-[c][1,2,5]oxadiazol-5-yl)-2,6-dimethylphenoxy)-5-methyl-5H-pyrrolo[3,2-d]pyrimidin-2-ylamino) benzonitrile]
EC50 (HIV-1 K103N-L100I mutant): 1 to 10 nM
EC50 (wild type HIV-1): 1 to 10 nM

Cc1cc(-c2ccc(C(=O)NC3CC3)cc2)cc(C)c1Oc1nc(Nc2ccc(C#N)cc2)nc2ccn(C)c12 [Example 92, 4′-(2-(4-cyanophenylamino)-5-methyl-5H-pyrrolo[3,2-d]pyrimidin-4-yloxy)-N-cyclopropyl-3′,5′-dimethylbiphenyl-4-carboxamide]
EC50 (HIV-1 K103N-L100I mutant): > 10 nM
EC50 (wild type HIV-1): > 10 nM

Cc1cc(-c2ccc(C(=O)N3CCC(O)C3)cc2)cc(C)c1Oc1nc(Nc2ccc(C#N)cc2)nc2ccn(C)c12 (stereo not drawn) [Example 94, 4-(4-(4′-(3-hydroxypyrrolidine-1-carbonyl)-3,5-dimethylbiphenyl-4-yloxy)-5-methyl-5H-pyrrolo[3,2-d]pyrimidin-2-ylamino) benzonitrile]
EC50 (HIV-1 K103N-L100I mutant): 1 to 10 nM
EC50 (wild type HIV-1): 1 to 10 nM

COc1cccc(C#N)c1-c1cc(C)c(Oc2nc(Nc3ccc(C#N)cc3)nc3ccn(C)c23)c(C)c1 [Example 83, 4′-(2-(4-cyanophenylamino)-5-methyl-5H-pyrrolo[3,2-d]pyrimidin-4-yloxy)-6-methoxy-3′,5′-dimethylbiphenyl-2-carbonitrile]
EC50 (wild type HIV-1): > 10 nM

Cc1cc(-c2ccc(C(=O)O)cn2)cc(C)c1Oc1nc(Nc2ccc(C#N)cc2)nc2[nH]cnc12 [Example 121, 6-(4-(2-(4-cyanophenylamino)-9H-purin-6-yloxy)-3,5-dimethylphenyl)nicotinic acid]
EC50 (wild type HIV-1): > 10 nM

Cc1cc(-c2ccc(C(=O)N3CCC(C(N)=O)C3)cn2)cc(C)c1Oc1nc(Nc2ccc(C#N)cc2)nc2[nH]cnc12 (stereo not drawn) [Example 122, 1-(6-(4-(2-(4-cyanophenylamino)-9H-purin-6-yloxy)-3,5-dimethylphenyl)nicotinoyl)pyrrolidine-3-carboxamide]
EC50 (wild type HIV-1): > 10 nM

Cc1cc(-c2cnc(N(C)C)nc2)cc(C)c1Oc1nc(Nc2ccc(C#N)cc2)nc2ccn(C)c12 [Example 28]
EC50 (HIV-1 K103N-L100I mutant): > 10 nM

Cc1cc(-c2cccc(S(N)(=O)=O)c2)cc(C)c1Oc1nc(Nc2ccc(C#N)cc2)nc2ccn(C)c12 [Example 71, 4′-(2-(4-cyanophenylamino)-5-methyl-5H-pyrrolo[3,2-d]pyrimidin-4-yloxy)-3′,5′-dimethylbiphenyl-3-sulfonamide]
EC50 (HIV-1 K103N-L100I mutant): > 10 nM

Cc1cc(-c2ccc(C(N)=O)cn2)cc(C)c1Oc1nc(Nc2ccc(C#N)cc2)nc2[nH]cnc12 [Example 126, 6-(4-(2-(4-cyanophenylamino)-9H-purin-6-yloxy)-3,5-dimethylphenyl)nicotinamide]
EC50 (wild type HIV-1): 1 to 10 nM

Cc1cc(-c2ccc(C(=O)N3CCCC3)cc2)cc(C)c1Oc1nc(Nc2ccc(C#N)cc2)nc2ccn(C)c12 [Example 93, 4-(4-(3,5-dimethyl-4′-(pyrrolidine-1-carbonyl)biphenyl-4-yloxy)-5-methyl-5H-pyrrolo[3,2-d]pyrimidin-2-ylamino) benzonitrile]
EC50 (wild type HIV-1): > 10 nM

Cc1cc(-c2cnc(N)nc2)cc(C)c1Oc1nc(Nc2ccc(C#N)cc2)nc2ccn(C)c12 [Example 70, 4-(4-(4-(2-aminopyrimidin-5-yl)-2,6-dimethylbiphenoxy)-5-methyl-5H-pyrrolo[3,2-d]pyrimidin-2-ylamino) benzonitrile]
EC50 (HIV-1 K103N-L100I mutant): 1 to 10 nM
